One series concerns tubulin. To be noted: cited from earlier work.
The conditions of series [1]: cited from earlier work.
The test system of the next series is HUVEC endothelial cells. The note with it: 24 hour stimulation, 0.1 to 10000 nM.
Series [2] relates to microtubules, HUVEC endothelial cells. To be noted: 100 nM, 24 hours.
Description: (§1) The efficiency of colchicine to bind microtubules and alter their polymerization was evaluated on HUVEC endothelial cells (FIG. 12) and J774 macrophages (FIG. 13). Cells were plated, respectively, at 5000 and 10000 cells/cm2 three days before colchicine stimulation. […] After 24 hours of stimulation, cells were fixed with paraformaldehyde 4% for 10 minutes. Blocking was performed with 10% normal goat serum with 0.2% Triton X-100. The immunocytometry staining used an α/β-tubulin antibody (#2148, Cell Signaling, 1/100, overnight, +4° C.) followed with a goat anti-rabbit antibody Alexa 555 (#A21429, Invitrogen, 1/200, 1 hour, room temperature). DAPI was used for nuclear staining. Pictures at 20× magnification were taken using AxioVision software SE64 4.9.1 (Zeiss).
Series [3] concerns microtubules, J774 macrophages. The note with it: 100 nM, 24 hours.
Description: as §1
The conditions of series [4]: for behenic acid conjugated colchicine in plasma: rats, 1 mg/kg. The protocol:
The route of administration and the PK profile for liposomes colchicine were evaluated. The scaled-up formulation of liposomes colchicine, 15 mL, ghost formulation, non-liposomal behenic acid-conjugated colchicine and free colchicine were evaluated to determine the PK profile of liposomes colchicine, as a function of route of administration, intra-peritoneal injection and oral gavage. This preliminary in vivo study is designed to estimate PK parameters of liposomes colchicine and mode of administration of the liposomes. This study was performed using 10 rats divided into 4 groups as specified in FIG. 14. Rats received colchicine or liposomes-colchicine at 1 mg/kg by intra-peritoneal injection or oral gavage. Two and 24 hours after administration, blood was collected for a quantification of plasmatic colchicine and liposomes by liquid chromatography-mass spectrometry (LC-MS/MS). […] All plasma samples were analyzed for colchicine and colchicine-behenic acid conjugate.
LC/MS samples were prepared as per standard plasma extraction protocol.

Setting [5] is: rats treated with behenic acid conjugated colchicine.

Structures are written as SMILES. Where two headings read alike, the source gives them in different places.

In the case of `COc1cc2c(c(OC)c1OC)-c1ccc(OC)c(=O)cc1[C@@H](NC(=O)CO)CC2` [colchifoline, N-(2-hydroxyacetyl) colchicine], in the series with tubulin, the “tubulin binding compared with colchicine” value is listed as “stronger”.
Consider `COc1cc2c(c(OC)c1OC)-c1ccc(OC)c(=O)cc1[C@@H](NC(C)=O)CC2` [Colchicine, colchicine], for which the “log P” value in series [1] was “about 1.5”. Moreover, the “Biopharmaceutical Classification System class” value in series [1] (high solubility and low permeability) is listed as “class III”. The “cell viability (MTT)” value in the series on HUVEC endothelial cells is “decreased cell viability”. Further, the “microtubule polymerization, cell division and cell shape” value was “significantly dysregulated microtubule polymerization, cell division and cell shape” in series [2]; “significantly dysregulated microtubule polymerization, cell division and cell shape” in series [3].
In the case of `CCCCCCCCCCCCCCCCCCCCCC(=O)OCC(=O)N[C@H]1CCc2cc(OC)c(OC)c(OC)c2-c2ccc(OC)c(=O)cc21` [AI-3-25], in series [4] (setting [5]), the colchifoline in plasma result was “found” and the “free colchicine as a metabolite in plasma” value is “not found”. Also, the “behenic acid conjugated colchicine in plasma” value in series [4] (IP, 2 hours) is reported as “presence”. The “behenic acid conjugated colchicine in plasma” value in series [4] (oral gavage) is given as “diminished levels”.

Source of the values: US20250288682A1, “DEVELOPMENT OF NANO-ENCAPSULATED FATTY-ACYL CONJUGATED COLCHICINE” (priority 2022, published 2025).
